Experimental data reported in US20220356174A1, “PYRIDIN-2-ONE COMPOUNDS USEFUL AS SMARCA2 ANTAGONISTS” (Epizyme, Inc., priority 2018, published 2022).

biological target: FL-SMARCA4 (Homo sapiens, UniProt P51532); assay: SMARCA4 ATPase activity assay (ADP-Glo, chicken mononucleosome substrate); settings: FL-SMARCA4 IC50
Sequence (P51532 whole entry): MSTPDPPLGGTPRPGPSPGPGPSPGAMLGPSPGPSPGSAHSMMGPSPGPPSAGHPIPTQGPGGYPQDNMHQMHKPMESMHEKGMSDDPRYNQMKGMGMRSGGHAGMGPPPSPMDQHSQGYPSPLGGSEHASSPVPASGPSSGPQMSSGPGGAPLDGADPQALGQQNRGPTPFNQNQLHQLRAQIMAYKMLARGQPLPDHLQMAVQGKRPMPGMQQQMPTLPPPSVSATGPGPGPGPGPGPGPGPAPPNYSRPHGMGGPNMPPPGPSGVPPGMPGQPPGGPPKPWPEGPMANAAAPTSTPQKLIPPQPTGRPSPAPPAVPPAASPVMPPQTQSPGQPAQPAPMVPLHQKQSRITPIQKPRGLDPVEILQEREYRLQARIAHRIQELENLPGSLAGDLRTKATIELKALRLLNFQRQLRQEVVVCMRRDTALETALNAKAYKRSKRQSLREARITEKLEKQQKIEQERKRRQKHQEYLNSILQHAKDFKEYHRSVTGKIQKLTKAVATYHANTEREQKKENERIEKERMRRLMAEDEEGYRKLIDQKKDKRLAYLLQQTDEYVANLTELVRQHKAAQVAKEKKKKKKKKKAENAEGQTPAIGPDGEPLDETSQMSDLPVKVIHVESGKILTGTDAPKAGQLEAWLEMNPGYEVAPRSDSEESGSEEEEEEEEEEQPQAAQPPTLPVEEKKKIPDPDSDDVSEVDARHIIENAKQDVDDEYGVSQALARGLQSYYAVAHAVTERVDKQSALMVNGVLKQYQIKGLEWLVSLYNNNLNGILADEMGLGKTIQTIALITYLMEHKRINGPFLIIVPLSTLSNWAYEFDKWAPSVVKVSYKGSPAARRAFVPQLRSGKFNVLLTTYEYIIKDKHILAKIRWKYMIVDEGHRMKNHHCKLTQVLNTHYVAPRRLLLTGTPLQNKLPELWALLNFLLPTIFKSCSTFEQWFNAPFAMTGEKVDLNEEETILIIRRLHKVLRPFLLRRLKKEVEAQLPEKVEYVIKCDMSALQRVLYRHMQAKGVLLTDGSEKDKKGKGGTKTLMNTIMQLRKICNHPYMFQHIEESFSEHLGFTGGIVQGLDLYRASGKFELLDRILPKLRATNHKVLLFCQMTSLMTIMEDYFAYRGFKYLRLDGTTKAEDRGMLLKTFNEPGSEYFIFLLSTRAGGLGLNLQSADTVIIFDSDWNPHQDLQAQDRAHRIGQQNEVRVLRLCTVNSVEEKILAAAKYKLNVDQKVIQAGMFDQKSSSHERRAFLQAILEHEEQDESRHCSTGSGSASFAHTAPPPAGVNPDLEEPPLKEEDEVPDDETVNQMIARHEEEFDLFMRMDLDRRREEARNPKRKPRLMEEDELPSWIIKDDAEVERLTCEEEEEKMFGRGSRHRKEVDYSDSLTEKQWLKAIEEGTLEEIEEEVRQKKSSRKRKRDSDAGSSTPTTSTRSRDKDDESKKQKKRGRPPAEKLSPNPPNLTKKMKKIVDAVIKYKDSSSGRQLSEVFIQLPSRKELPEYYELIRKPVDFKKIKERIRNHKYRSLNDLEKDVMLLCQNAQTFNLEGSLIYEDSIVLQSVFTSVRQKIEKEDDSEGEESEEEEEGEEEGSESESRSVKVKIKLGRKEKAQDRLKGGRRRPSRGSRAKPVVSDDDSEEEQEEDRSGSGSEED

| SMILES | IC50 [µM] |
| --- | --- |
| O=C(Nc1cc(F)c(=O)n(CC(F)F)c1)c1cc(C#CC2CCCNC2)c(Cl)s1 (stereo not drawn) [Compound 108d] | 1.78 |
| O=C(Nc1cc(F)c(=O)n(CC(F)F)c1)c1cc(C#Cc2ccc3nccn3c2)c(Cl)s1 [Compound 115d] | 0.0993 |
| Cc1cc(C(=O)Nc2cc(F)c(=O)n(CC(F)F)c2)sc1C(F)(F)F [Compound 80d] | 1.14 |
| O=C(Nc1cc(F)c(=O)n(CC(F)F)c1)c1cc(C#C[C@H]2CCC[C@@H](O)C2)c(Cl)s1 [Compound 120d] | 0.201 |

same assay, conditions: FL-SMARCA4 IC>50, Table 3c.2; ATPase assay, enzyme 5 nM, ATP 250 uM, chicken mononucleosome 10 nM, 30 min preincubation

| SMILES | IC50 [µM] |
| --- | --- |
| Cn1cc(C#Cc2cc(C(=O)Nc3cc(F)c(=O)n(CC(F)F)c3)sc2Cl)cn1 [Compound 5c] | 0.0759 |
| NC(=O)c1cccc(C#Cc2cc(C(=O)Nc3cc(F)c(=O)n(CC(F)F)c3)sc2Cl)c1 [Compound 57c] | 0.0999 |
| O=C(Nc1cc(F)c(=O)n(CC(F)F)c1)c1cc(C#Cc2cccnc2)c(C(F)(F)F)s1 [Compound 65c] | 0.154 |
| O=C(Nc1cc(F)c(=O)n(CC(F)F)c1)c1cc(C#CC2COC2)c(C(F)F)s1 [Compound 80c] | 0.494 |
| N#Cc1cccc(C#Cc2cc(C(=O)Nc3cc(F)c(=O)n(CC(F)F)c3)sc2Cl)c1 [Compound 34c] | 0.233 |
| O=C(Nc1cc(F)c(=O)n(CC(F)F)c1)c1cc(C#C[C@@H]2CCOC2)c(Cl)s1 [Compound 79c] | 0.143 |

Now from value to molecule:

| IC50 [µM] | SMILES |
| --- | --- |
| 36.2 | O=C(Nc1cc(C2COC2)c(=O)n(CC(F)F)c1)c1cc(F)c(Cl)s1 [Compound 155c] |
| 0.0629 | O=C(Nc1cc(F)c(=O)n(CC(F)F)c1)c1cc(C#Cc2cn[nH]c2)c(Cl)s1 [Compound 83c] |
| 0.143 | CNC(=O)c1cncc(C#Cc2cc(C(=O)Nc3cc(F)c(=O)n(CC(F)F)c3)sc2Cl)c1 [Compound 129c] |
| 0.384 | CNC(=O)Cn1cc(C#Cc2cc(C(=O)Nc3cc(F)c(=O)n(CC(F)F)c3)sc2Cl)cn1 [Compound 121c] |
| 0.0691 | Cn1ccc(C#Cc2cc(C(=O)Nc3cc(F)c(=O)n(CC(F)F)c3)sc2Cl)n1 [Compound 144c] |

biological target: T1, FL-SMARCA2 (full-length human SMARCA2 isoform 1) (Homo sapiens, UniProt P51531); assay: SMARCA2 ATPase activity assay (ADP-Glo, chicken mononucleosome substrate); format: biochemical; settings: Table 3c.1; ATPase assay, enzyme 5 nM, ATP 250 uM, chicken mononucleosome 10 nM, 30 min preincubation
T1 construct: FLAG tag (YKDDDDK) (C); made in house; host or cells: Sf21 insect cells (baculovirus, pFastBacI)
T1 sequence (P51531 with tags, fused parts or gaps): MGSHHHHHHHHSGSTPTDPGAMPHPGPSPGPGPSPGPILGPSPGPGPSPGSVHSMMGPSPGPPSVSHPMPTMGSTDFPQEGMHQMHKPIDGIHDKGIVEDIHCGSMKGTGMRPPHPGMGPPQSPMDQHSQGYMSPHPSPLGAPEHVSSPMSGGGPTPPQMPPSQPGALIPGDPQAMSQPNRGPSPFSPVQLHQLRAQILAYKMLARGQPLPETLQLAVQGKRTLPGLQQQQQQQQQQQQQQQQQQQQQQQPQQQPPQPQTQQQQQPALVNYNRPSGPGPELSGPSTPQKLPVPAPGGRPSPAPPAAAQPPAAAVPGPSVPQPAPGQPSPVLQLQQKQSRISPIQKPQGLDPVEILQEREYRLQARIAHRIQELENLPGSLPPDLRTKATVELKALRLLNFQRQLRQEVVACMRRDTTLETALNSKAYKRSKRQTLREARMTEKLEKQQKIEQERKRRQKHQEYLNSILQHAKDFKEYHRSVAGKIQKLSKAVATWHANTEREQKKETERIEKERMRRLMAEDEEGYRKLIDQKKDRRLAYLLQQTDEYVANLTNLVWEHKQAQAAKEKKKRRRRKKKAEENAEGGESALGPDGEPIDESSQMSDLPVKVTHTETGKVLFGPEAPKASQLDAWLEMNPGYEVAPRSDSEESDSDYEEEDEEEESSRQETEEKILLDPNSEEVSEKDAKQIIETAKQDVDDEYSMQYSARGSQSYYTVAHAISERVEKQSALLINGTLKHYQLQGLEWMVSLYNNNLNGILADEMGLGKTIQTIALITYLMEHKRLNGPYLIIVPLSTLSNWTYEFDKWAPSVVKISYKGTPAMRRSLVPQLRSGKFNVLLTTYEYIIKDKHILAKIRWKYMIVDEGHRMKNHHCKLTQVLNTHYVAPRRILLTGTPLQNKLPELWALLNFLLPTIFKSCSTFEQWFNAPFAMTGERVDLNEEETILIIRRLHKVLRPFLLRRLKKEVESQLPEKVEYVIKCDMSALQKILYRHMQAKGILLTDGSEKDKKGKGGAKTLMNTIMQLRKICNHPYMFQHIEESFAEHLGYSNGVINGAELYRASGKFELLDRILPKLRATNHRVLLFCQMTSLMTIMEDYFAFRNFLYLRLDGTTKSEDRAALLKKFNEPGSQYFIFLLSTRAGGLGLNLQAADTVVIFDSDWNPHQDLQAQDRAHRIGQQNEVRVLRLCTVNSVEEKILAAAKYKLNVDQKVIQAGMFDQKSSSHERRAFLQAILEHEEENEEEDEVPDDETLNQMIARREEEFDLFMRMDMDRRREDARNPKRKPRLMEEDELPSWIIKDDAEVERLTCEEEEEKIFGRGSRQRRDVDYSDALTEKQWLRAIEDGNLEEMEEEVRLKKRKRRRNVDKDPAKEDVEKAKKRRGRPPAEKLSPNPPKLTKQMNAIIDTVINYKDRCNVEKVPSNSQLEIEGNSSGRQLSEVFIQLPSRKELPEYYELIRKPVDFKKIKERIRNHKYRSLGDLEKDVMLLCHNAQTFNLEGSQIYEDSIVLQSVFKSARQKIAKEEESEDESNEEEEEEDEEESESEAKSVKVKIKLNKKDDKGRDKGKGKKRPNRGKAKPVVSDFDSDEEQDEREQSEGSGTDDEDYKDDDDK

| SMILES | IC50 [µM] |
| --- | --- |
| Cn1cc(C#Cc2cc(C(=O)Nc3cc(F)c(=O)n(CC(F)F)c3)sc2Cl)cn1 [Compound 5c] | 0.0285 |
| NC(=O)c1cccc(C#Cc2cc(C(=O)Nc3cc(F)c(=O)n(CC(F)F)c3)sc2Cl)c1 [Compound 57c] | 0.0209 |
| O=C(Nc1cc(F)c(=O)n(CC(F)F)c1)c1cc(C#Cc2cccnc2)c(C(F)(F)F)s1 [Compound 65c] | 0.0337 |
| O=C(Nc1cc(F)c(=O)n(CC(F)F)c1)c1cc(C#CC2COC2)c(C(F)F)s1 [Compound 80c] | 0.161 |
| N#Cc1cccc(C#Cc2cc(C(=O)Nc3cc(F)c(=O)n(CC(F)F)c3)sc2Cl)c1 [Compound 34c] | 0.0938 |
| O=C(Nc1cc(F)c(=O)n(CC(F)F)c1)c1cc(C#C[C@@H]2CCOC2)c(Cl)s1 [Compound 79c] | 0.0568 |

More lines, now with the values ahead:

| IC50 [µM] | SMILES |
| --- | --- |
| 30.8 | O=C(Nc1cc(C2COC2)c(=O)n(CC(F)F)c1)c1cc(F)c(Cl)s1 [Compound 155c] |
| 0.0194 | O=C(Nc1cc(F)c(=O)n(CC(F)F)c1)c1cc(C#Cc2cn[nH]c2)c(Cl)s1 [Compound 83c] |
| 0.0513 | CNC(=O)c1cncc(C#Cc2cc(C(=O)Nc3cc(F)c(=O)n(CC(F)F)c3)sc2Cl)c1 [Compound 129c] |
| 0.191 | CNC(=O)Cn1cc(C#Cc2cc(C(=O)Nc3cc(F)c(=O)n(CC(F)F)c3)sc2Cl)cn1 [Compound 121c] |
| 0.0201 | Cn1ccc(C#Cc2cc(C(=O)Nc3cc(F)c(=O)n(CC(F)F)c3)sc2Cl)n1 [Compound 144c] |

same assay, conditions: Table 3d.1; ATPase assay, enzyme 5 nM, ATP 250 uM, chicken mononucleosome 10 nM, 30 min preincubation; read-out: FL-SMARCA2 IC>50

| SMILES | IC50 [µM] |
| --- | --- |
| O=C(Nc1cc(F)c(=O)n(CC(F)F)c1)c1cc(C#CC2CCCNC2)c(Cl)s1 (stereo not drawn) [Compound 108d] | 0.542 |
| O=C(Nc1cc(F)c(=O)n(CC(F)F)c1)c1cc(C#Cc2ccc3nccn3c2)c(Cl)s1 [Compound 115d] | 0.0358 |
| Cc1cc(C(=O)Nc2cc(F)c(=O)n(CC(F)F)c2)sc1C(F)(F)F [Compound 80d] | 0.224 |
| O=C(Nc1cc(F)c(=O)n(CC(F)F)c1)c1cc(C#C[C@H]2CCC[C@@H](O)C2)c(Cl)s1 [Compound 120d] | 0.0701 |

tested on: A549 cells; assay: High-throughput proliferation (HTP) assay for A549 cells (CellTiter-Glo, 7 days); format: cell-based; settings: Homo sapiens, 168 h, read-out: A549 SMARCA2 IC50
In short: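 A549 cells plated at 62.5 cells/well in F12K + 10% HI-FBS onto pre-dispensed compound, grown 7 days at 37° C., 5% CO2. Viability by CellTiter-Glo luminescence after 30 min at RT; EC50/IC50 from DMSO (0%) and 10 μM Doxorubicin (100%) inhibition controls.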

| SMILES | IC50 [µM] |
| --- | --- |
| Cn1cc(C#Cc2cc(C(=O)Nc3cc(F)c(=O)n(CC(F)F)c3)sc2Cl)cn1 [Compound 5c] | 1.16 |
| NC(=O)c1cccc(C#Cc2cc(C(=O)Nc3cc(F)c(=O)n(CC(F)F)c3)sc2Cl)c1 [Compound 57c] | 3.61 |
| O=C(Nc1cc(F)c(=O)n(CC(F)F)c1)c1cc(C#Cc2cccnc2)c(C(F)(F)F)s1 [Compound 65c] | 4.32 |
| O=C(Nc1cc(F)c(=O)n(CC(F)F)c1)c1cc(C#CC2COC2)c(C(F)F)s1 [Compound 80c] | 3.98 |
| N#Cc1cccc(C#Cc2cc(C(=O)Nc3cc(F)c(=O)n(CC(F)F)c3)sc2Cl)c1 [Compound 34c] | 1.46 |
| O=C(Nc1cc(F)c(=O)n(CC(F)F)c1)c1cc(C#C[C@@H]2CCOC2)c(Cl)s1 [Compound 79c] | 1.29 |
| Cc1cc(C(=O)Nc2cc(F)c(=O)n(CC(F)F)c2)sc1C(F)(F)F [Compound 80d] | > 10 |

Other lines, results leading:

| IC50 [µM] | SMILES |
| --- | --- |
| > 10 | O=C(Nc1cc(C2COC2)c(=O)n(CC(F)F)c1)c1cc(F)c(Cl)s1 [Compound 155c] |
| 3.47 | O=C(Nc1cc(F)c(=O)n(CC(F)F)c1)c1cc(C#Cc2cn[nH]c2)c(Cl)s1 [Compound 83c] |
| > 10 | CNC(=O)c1cncc(C#Cc2cc(C(=O)Nc3cc(F)c(=O)n(CC(F)F)c3)sc2Cl)c1 [Compound 129c] |
| > 10 | CNC(=O)Cn1cc(C#Cc2cc(C(=O)Nc3cc(F)c(=O)n(CC(F)F)c3)sc2Cl)cn1 [Compound 121c] |
| > 10 | O=C(Nc1cc(F)c(=O)n(CC(F)F)c1)c1cc(C#CC2CCCNC2)c(Cl)s1 (stereo not drawn) [Compound 108d] |
| 2.08 | O=C(Nc1cc(F)c(=O)n(CC(F)F)c1)c1cc(C#Cc2ccc3nccn3c2)c(Cl)s1 [Compound 115d] |
| 1.68 | Cn1ccc(C#Cc2cc(C(=O)Nc3cc(F)c(=O)n(CC(F)F)c3)sc2Cl)n1 [Compound 144c] |
| 2.12 | O=C(Nc1cc(F)c(=O)n(CC(F)F)c1)c1cc(C#C[C@H]2CCC[C@@H](O)C2)c(Cl)s1 [Compound 120d] |

tested on: H358 cells; assay: High-throughput proliferation (HTP) assay for H358 cells (CellTiter-Glo, 7 days); format: cell-based; settings: Homo sapiens, NCI-H358, 168 h, read-out: H358 SMARCA2 IC50
Description: Thawing vials: H358 cells (ATCC #CRL-5807™) were thawed from a cryovial containing approximately 1.6×10^6 cells frozen in 70% RPMI 1640 medium, 20% HI-FBS and 10% DMSO. Cells were thawed by submerging the bottom half of the vial in a 37° C. water bath and gently flicked until almost thawed. The cells were removed and transferred into a 15 mL conical tube containing 9 mL RPMI 1640 medium+10% HI-FBS and then centrifuged 200×g for 4 min before drawing off the media without disturbing the cell pellet to remove the DMSO. The cells were resuspended again in 15 mL of RPMI 1640 fresh complete media+10% HI-FBS and grown up in a T75 flask at 37° C. with 5% CO2 Incubator. Viability was measured to obtain baseline.
Preparing frozen stock vials: Cell density was counted in a stock flask. The culture was transferred to a 50 mL conical tube and spun down to remove medium, and then resuspend at 1-2×10^6 cells/mL in complete medium containing 10% DMSO and transferred to a 1 mL per vial.
Routine subculture: Sub-confluent cultures (70-80%) were split every 4 days, seeding out at 1-2×10^6 cells/75 cm^2.
Day 0: Assay ready plates were prepared by dispensing 50 nL of compound stock or DMSO in the appropriate wells of 384-well white CulturPlates using Echo550. Using the Multiflo, H358 cells at 50 μL/well were plated in RPMI 1640 complete media+10% HI-FBS+1% pen/strep at cell density determined [20,000 cells/mL (1,000 cells/well)] from growth curve. Treated cells were inclubated at 37° C., 5% CO2, relative humidity >90% for 7 days. CellTiter-Glo (CTG) ATP detection reagent was prepared according to manufacturer's specifications. Cell assay plates were removed from incubator and bring to room temperature (RT).
Using the MultiDrop liquid handler, 30 μL of CTG were added per well. Plates were placed on the multidrop dispenser shake for 5 seconds at RT. Plates were incubated for 30 minutes in the dark at RT before measuring luminescence using the Envison2104.
Data analysis: Using the DMSO control wells as the 0% inhibition (high signal) control and the 10 uM Doxorubicin control wells as the 100% inhibition (low signal) control, percent inhibition EC50s (inflection point) and IC50s were calculated for the compound dose responses.

| SMILES | IC50 [µM] |
| --- | --- |
| Cn1cc(C#Cc2cc(C(=O)Nc3cc(F)c(=O)n(CC(F)F)c3)sc2Cl)cn1 [Compound 5c] | > 10 |
| NC(=O)c1cccc(C#Cc2cc(C(=O)Nc3cc(F)c(=O)n(CC(F)F)c3)sc2Cl)c1 [Compound 57c] | > 10 |
| O=C(Nc1cc(F)c(=O)n(CC(F)F)c1)c1cc(C#Cc2cccnc2)c(C(F)(F)F)s1 [Compound 65c] | > 10 |
| O=C(Nc1cc(F)c(=O)n(CC(F)F)c1)c1cc(C#CC2COC2)c(C(F)F)s1 [Compound 80c] | > 10 |
| N#Cc1cccc(C#Cc2cc(C(=O)Nc3cc(F)c(=O)n(CC(F)F)c3)sc2Cl)c1 [Compound 34c] | > 10 |
| O=C(Nc1cc(F)c(=O)n(CC(F)F)c1)c1cc(C#C[C@@H]2CCOC2)c(Cl)s1 [Compound 79c] | > 10 |
| Cc1cc(C(=O)Nc2cc(F)c(=O)n(CC(F)F)c2)sc1C(F)(F)F [Compound 80d] | > 10 |

More lines, now with the values ahead:

| IC50 [µM] | SMILES |
| --- | --- |
| > 10 | O=C(Nc1cc(C2COC2)c(=O)n(CC(F)F)c1)c1cc(F)c(Cl)s1 [Compound 155c] |
| > 10 | O=C(Nc1cc(F)c(=O)n(CC(F)F)c1)c1cc(C#Cc2cn[nH]c2)c(Cl)s1 [Compound 83c] |
| > 10 | CNC(=O)c1cncc(C#Cc2cc(C(=O)Nc3cc(F)c(=O)n(CC(F)F)c3)sc2Cl)c1 [Compound 129c] |
| > 10 | CNC(=O)Cn1cc(C#Cc2cc(C(=O)Nc3cc(F)c(=O)n(CC(F)F)c3)sc2Cl)cn1 [Compound 121c] |
| > 10 | O=C(Nc1cc(F)c(=O)n(CC(F)F)c1)c1cc(C#CC2CCCNC2)c(Cl)s1 (stereo not drawn) [Compound 108d] |
| > 10 | O=C(Nc1cc(F)c(=O)n(CC(F)F)c1)c1cc(C#Cc2ccc3nccn3c2)c(Cl)s1 [Compound 115d] |
| > 10 | Cn1ccc(C#Cc2cc(C(=O)Nc3cc(F)c(=O)n(CC(F)F)c3)sc2Cl)n1 [Compound 144c] |
| > 10 | O=C(Nc1cc(F)c(=O)n(CC(F)F)c1)c1cc(C#C[C@H]2CCC[C@@H](O)C2)c(Cl)s1 [Compound 120d] |
